Experimental data reported in US20100068297A1, “Antimicrobial Composition” (NATURE THERAPEUTICS LIMITED, priority 2006, published 2010).
Several values for one entry are separate records, joined by “and”; a condition that tells them apart may be missing. Identical values can stand only once.

How the values were obtained:
[1] = tested on: Pseudomonas aeruginosa; assay: In vitro bactericidal assay, control strain; assay type: cell-based; conditions: metal ion added to PRE
Procedure: The control strain was Pseudomonas aeruginosa for standard experimentation, ie determining optimal preparations.
Growth conditions: on nutrient agar provided by Oxoid Ltd for 24 hrs at 37° C.
The inventor established a functional in vitro bactericidal assay to screen a variety of formulations (cream, aqueous and ointment). This assay involved adding 0.5 g of ointment to 10 ml of water and vortexing prior to a standard suspension test using 50 microlitres of bacterial cell suspension to a turbidity of 0.5 McFarland solution (bacterial cell suspension equal to 1.5×10^8) plus 100 microlitres of the ointment solution. After incubation in the dark at room temperature for 30 mins, serial dilutions (from 10^−1 to 10^−5) were carried out on nutrient agar.
In terms of mechanisms of action, the preference for using metal ions in the reduced state led to the incorporation of studies using reductants to stabilize this oxidation state, and prolong and enhance activity. Thus, the reductant Vitamin C was added in three different doses after pre-incubating the PRE/metal ions mixtures for 30 minutes, and the results are shown in FIG. 2.
The longer term activities of the PRE:metal salt(s) mixtures were investigated after a period of 24 and 48 hours, and the results are shown in FIG. 4. […] The results shown are for one system only as an example.

[2] = tested on: Staph. aureus; assay: Tea extracts with metal salts, suspension assay 30 min; assay type: cell-based, Staphylococcus aureus; conditions: Lambda buffer control
Procedure: (§1) Tea infusions were prepared as previously with boiling sterilized distilled water. After 10 minutes, the extracts are removed from the beaker into sterilized universal tubes. The pH of these extracts was neutralized using a 1 M NaOH solution. The extracts are refrigerated, used within 4 days and without further treatment. Overnight cultures of the Gram-positive strain (Staph. aureus) and the Gram-negative strains (Ps. aeruginosa and Prot. mirabilis) were suspended in Ringers solution to a turbidity equivalent to 0.5 McFarland (1.5×10^8 CFU/ml). Metal salts were added to the optimum tea extracts immediately before the assay was conducted. […] The appropriate bacterial dilution was prepared and 50 μl of that was placed in a sterile Eppendorf micro-centrifuge tube with a 100 μl of the extract/metal salt solution. […] Serial dilutions were prepared in Ringer's solution, 10 μL aliquots of each dilution were spotted onto nutrient agar plates and incubated aerobically for 24 hours at 37° C. Each assay was conducted in triplicate.

[3] = tested on: Prot. mirabilis; assay: as above; assay type: cell-based, Proteus mirabilis; conditions: Lambda buffer control
Procedure: as §1

[4] = tested on: Ps. aeruginosa; assay: as above; assay type: cell-based, Pseudomonas aeruginosa; conditions: Lambda buffer control
Procedure: as §1

[5] = tested on: E. coli; assay: Suspension assay, 30 minutes exposure, viable count; assay type: cell-based; conditions: no Vitamin C
Procedure: All reagents were purchased from Sigma-Aldrich (Poole, Dorset) and distilled water was used throughout. Overnight cultures on nutrient agar were then suspended in Ringer's solution (Oxoid, U.K.) to a turbidity equivalent to 0.5 McFarland (1.5×10^8 CFU/ml). […] The final solution was protected from light (Stewart et al. 1998. J. Appl Microbiol 84:777-783). The appropriate bacterial dilution was prepared and 50 μl placed in a sterile Eppendorf micro-centrifuge tube with a 100 μl of the extract/metal salt solution. […] Serial dilutions were prepared in Ringer's solution (10^−5), 10 μl of each dilution is spotted on nutrient agar plate and incubated for 24 hours at 37° C. Each assay was conducted in triplicate. The assay was carried out as described above with the following addition: […]

[6] = tested on: PVL positive cMRSA; assay: Suspension test, 2 hours, clinical isolates; assay type: cell-based, Staphylococcus aureus; conditions: 2 hours exposure, 10 clinical isolates
Procedure: Clinical isolates of methicillin resistant (n=10), methicillin sensitive (n=10) Staphylococcus aureus (MRSA and MSSA) and Panton-Valentine Leukocidin producing cMRSA (n=10) were used in the study. The MRSA and MSSA isolates were collected from the Royal Marsden Hospital (London, UK) and the cMRSA isolates were collected from the Devon and Exeter Hospital (UK). The isolates were cultured over night on nutrient agar (Oxoid), aerobically at 37° C. and then frozen in cyrovials (Pro-labs) at −80° C. until required. Prior to use all isolates were passaged twice on nutrient agar aerobically at 37° C. In all assays culture were prepared by using overnight cultures on nutrient agar that were then suspended in Ringer's solution (Pro-Lab, U.K.) to a turbidity equivalent to 0.5 McFarland (1.5×10^8 cfu ml^−1).
Briefly, overnight cultures on nutrient agar were then suspended in Ringer's solution (Oxoid, U.K.) to a turbidity equivalent to 0.5 McFarland (1.5×10^8 CFU/ml).
The appropriate bacterial dilution was prepared and 50 μL it placed in a sterile Eppendorf micro-centrifuge tube with a 100 μL of the extract/metal salt solution. Following treatment of the bacteria for 2 hours at room temperature, the activity of the bactericidal agent was neutralized by adding an equal volume of 2% (v/v) Tween-80 (Sigma Chemical Co., UK) in Lambda buffer. […]

[7] = tested on: MRSA; assay: Micro-dilution MIC, alone and in combination; assay type: cell-based, Staphylococcus aureus; conditions: each table line is a group of isolates; 24 h
Procedure: The plates were prepared as follows, 50 μl of four-times strength Iso-Sensitest broth was added to the first row of wells and 50 μl of double strength Iso-Sensitest broth was added to all remaining wells. To the first row of wells 50 μl of the PRE was added and mixed, 50 μl of broth from row A was transferred to row B and mixed, this process was continued to row E Finally, 50 μl of broth was removed from well F and discarded. Then the overnight cultures were suspended in Ringers solution to a turbidly of 0.5 McFarland (1.5×10^8 cfu/ml). 50 μl of suspension were added to well A (final concentration of PRE in well A=200 mg/ml) through to G All samples were carried out in Triplicate. All plates were incubated at 37° C. for 24 hours. After incubation 10 μl of broth from each well was spotted onto nutrient agar and incubated at 37° C. for 24 hours. After incubation the plates were examined to determine breakpoints by the presence or absence of growth.

[8] = tested on: ESβL Pseudomonas aeruginosa clinical isolates; assay: Suspension test, aqueous preparations, 30 minutes; assay type: cell-based; conditions: no Vitamin C, nine isolates, listed as Cu(II)
Procedure: P. aeruginosa isolates were removed from the freezer and first passaged on nutrient agar twice before use. Overnight cultures on nutrient agar were then suspended in Ringer's solution (Oxoid, U.K.) to a turbidity equivalent to 0.5 McFarland (1.5×10^8 CFU/ml).
The appropriate bacterial dilution was prepared and 50 μl placed in a sterile Eppendorf micro-centrifuge tube with a 100 μl of the extract/metal salt solution. After exposure of the bacteria for 30 minutes at room temperature, the activity of the bactericidal agent was neutralized by adding an equal volume of 2% (v/v) Tween-80 (Sigma Chemical Co., UK) in Lambda buffer (Stewart et al. 1998). Serial dilutions were prepared in Ringer's solution (10^−5), 10 μl of each dilution is spotted on nutrient agar plate and incubated for 24 hours at 37° C. Each assay was conducted in triplicate.
The assay was carried out as described above with the following addition: Vitamin C was added to the metal ion solution immediately prior to mixing with the PRE. Aliquots of Vitamin C were made to give final metal ion:Vitamin C ratios (and Vitamin C concentrations) of 1:1 (4.8 mM), 1:5 (24 nM), 1:20 (96 mM) (metal salt:Vitamin C). 700 μl of this solution was then added to PRE.

| Compound | activity of the metal ion solution upon addition to PRE [1] | bactericidal efficacy, reduction in CFU/mL (factor) [2] | bactericidal efficacy, reduction in CFU/mL (factor) [3] | bactericidal efficacy, reduction in CFU/mL (factor) [4] | reduction of surviving population / growth, factor compared to the buffer [5] | isolates in which the 10^3 log reduction in growth was observed [6] [%] | reduction in growth [6] | MIC, agent alone [7] | reduction in growth (mean values) [8] |
| --- | --- | --- | --- | --- | --- | --- | --- | --- | --- |
| O=S(=O)([O-])[O-].[Zn+2] [ZnSO4] | little or no activity | – | – | – | – | – | – | – | – |
| O=S(=O)([O-])[O-].[Mn+2] [MnSO4] | little or no activity | poor efficacy | minimal | minimal | – | – | – | – | – |
| O=S(=O)([O-])[O-].[Fe+2] [FeSO4, iron (II) sulfate] | highest activities | poor efficacy | 10^3 | 10^3 | – | – | – | – | – |
| O=S(=O)([O-])[O-].[Cu+2] [CuSO4, copper (II) sulfate] | highest activities | 10^4 | 10^2 | 10^2 | 10^4 | 60 | 10^3 log10 | 3125 µg/mL and 1563 µg/mL | ~10^1 log10 and ~10^2 log10 |
